Assay results as given in ChEMBL document CHEMBL5329190, “Screening and optimization of phage display cyclic peptides against the WDR5 WBM site” (RSC Med Chem, 2023).

Target: WD repeat-containing protein 5 (Homo sapiens, UniProt P61964)
Assay: Binding affinity to his sumo tagged N-terminal WDR5 (23 to […] residues) (unknown origin) incubated for 3 hrs by HTRF binding assay

IC50	Compound
> 100 µM	CC(C)[C@H](NC(=O)[C@H](CC(=O)O)NC(=O)[C@H](C)NC(=O)[C@H](CCC(=O)O)NC(=O)CNC(=O)[C@H](CCC(=O)O)NC(=O)CNC(=O)[C@@H](N)CS)C(=O)N[C@@H](CS)C(=O)O
> 100 µM	CC(C)C[C@H](NC(=O)[C@H](Cc1ccccc1)NC(=O)[C@@H](N)CS)C(=O)N[C@@H](CC(N)=O)C(=O)N[C@H](C(=O)N[C@@H](CO)C(=O)N[C@@H](CC(N)=O)C(=O)N[C@@H](C)C(=O)N[C@@H](CS)C(=O)O)C(C)C
> 100 µM	NCCCC[C@H](NC(=O)[C@H](Cc1c[nH]c2ccccc12)NC(=O)[C@H](CCC(N)=O)NC(=O)[C@H](CC(N)=O)NC(=O)[C@@H]1CCCN1C(=O)[C@@H](N)CS)C(=O)N[C@@H](CO)C(=O)N[C@@H](Cc1ccc(O)cc1)C(=O)N[C@@H](CS)C(=O)O
